{"source": "patent US6627211B1", "about": "“Transnasal anticonvulsive compositions and modulated process” (SK Corporation, priority 1999, dated 2003)", "key": {"[1]": {"experiment": "Bioavailability and pharmacokinetics of (S)-2-carbamoyloxyl-1-o-chlorophenylethanol preparations after IV and IN administration", "format": "in vivo", "settings": "rabbits", "experimental": "A formulation for IV injection was prepared by dissolving 15 mg (S)-2-carbamoyloxyl-1-o-chlorophenylethanol in 1 mL of 40% PEG 400 and 60% water and filtering through a sterile membrane filter under aseptic conditions. The formulations were administered to rabbits (n=2-4) at the two dosing levels of 2.5 mg/kg and 5 mg/kg in a manner analogous to that described in Example 7. A repeated dosing regimen at 5 minute intervals was also studied in the nasal application of the preparation of the invention. […] To the plasma sample, 50 μl of an internal standard solution (2-(2,6-dichlorophenyl)-2-carbamoyloxyethyl)oxocarboxamide-10 μg/ml) and 5 ml of methyl-butyl ether were added. The mixture was vortexed for 60 seconds and centrifuged at 3500 rpm for 10 minutes. […] The residue was reconstituted with 200 μl of deionized water. The (S)-2-carbamoyloxyl-1-o-chlorophenylethanol concentration in the plasma was determined by HPLC in the use of a mobile phase consisting of 20% acetonitrile and 80% water with a flow rate of 1 ml/minute and UV detection at 210 nm. The detection limit for (S)-2-carbamoyloxyl-1-o-chlorophenylethanol was 23 nmol/l. The pharmacokinetic parameters determined after IV and IN administration of (S)-2-carbamoyloxyl-1-o-chlorophenylethanol at two dose strengths are presented in Table VIII. […]"}, "in vitro": {"experiment": "in vitro", "settings": "for Mean Transnasal Flux: diazepam, 37° C., n = 2", "source_text": "The nasal mucous membrane used in these in vitro experiments was obtained from New Zealand White rabbits (2.5-3.0 kg). Rabbits were sacrificed by IV injection of phenobarbital. The nasal septum was carefully removed from a bone block using surgical scissors and a bone-cutting saw. Two pieces of nasal mucous membranes were then carefully stripped from the nasal septum without touching the center of the membrane surface and rinsed with normal saline solution. The mucosal membrane was mounted between two half-cells of a glass diffusion cell apparatus. The exposed area of the nasal membrane was approximately 0.64 cm^2. A test solution or suspension (3.5 ml) was introduced into the mucosal side of the membrane in the donor compartment while 3.5 ml of 10% ethanol, 40% propylene glycol, and 50% pH 7.4 isotonic phosphate buffer solution was added to the receptor compartment. The entire diffusion system was maintained at 37° C. throughout the experiment. At predetermined time intervals, 100 μl of the receptor solution was withdrawn for the assay and refilled with the same volume of fresh receptor medium to keep the volume constant. The steady-state flux value was determined from the slope of the straight line attained from the plot of the cumulative amount of drug permeated as a function of time. Each experiment was carried out in at least duplicate.\nA high pressure liquid chromatographic system equipped with a multi-solvent delivery system (Model 600E, Waters Associates, Milford, Mass.), an auto-injector (Model 717 Plus, Waters Ass.), a photodiode array detector (Model 996, Waters Ass.), a reverse phase Symmetric C18 column (150 mm ×3.9 mm ID, 5 μm), and a Millenium 2010 software computer system was used in this study.\nIn these studies, a series of bile salts such as sodium cholate, sodium deoxycholate, sodium taurocholate, and sodium glycocholate, and a lecithin such as lysophosphatidylcholine were examined. The permeation rates were measured using the method described under the in vitro membrane permeation test method.\nThe permeation rates were determined utilizing the method described in Example 1.\nThe in vitro membrane permeation rates were measured using the test method described in Example 1.\nSample drug solutions (10 mg/ml) were prepared with the vehicle with and without the bile salt. The membrane permeation rates were measured in the use of the test method described in Example 1.\nThe in vitro permeation experiments were performed using the test method described in Example 1."}, "[2]": {"experiment": "Bioavailability and pharmacokinetics of clonazepam preparations after IV and IN administration", "settings": "rabbits", "quoted_text": "The formulations were administered to rabbits (n=3) at a dose of 0.2 mg/kg in a manner analogous to those described in Example 7. A repeated dosing regimen (double and triple applications) at 5 minutes time intervals was also tested. Blood samples were obtained from the ear vein at the following time intervals: 0, 2, 5, 10, 20, 30, 45, 60, and 120 minutes. From the blood samples, plasma was separated by centrifugation and stored at −20° C. until analysis. For analysis, plasma samples (0.5 ml) were accurately transferred into a 15-ml test tube. […] To the above mixture, 5 ml of diethyl ether was added and this mixture was vortexed for 60 seconds and centrifuged at 4000 rpm for 10 minutes. The upper ethereal solution was transferred to a 5 ml test tube and evaporated in a vacuum evaporator at 40° C. for 30 minutes. The residue was reconstituted with 100 μl of the mobile phase for HPLC analysis consisting of 20% methanol, 30% acetonitrile, and a 50% pH 3.5 KH2PO4/H3PO4 buffer/solution. The clonazepam concentration in the plasma was determined by HPLC using a flow rate of 1 ml/minute and the UV detection at 254 nm. The detection limit for clonazepam was 16 nmol/l."}, "[3]": {"settings": "dogs, after the nasal administration; cited from earlier work"}, "[4]": {"settings": "vehicle 30% ethanol, 60% propylene glycol, 10% water, initial drug concentration 5mg/ml"}}, "data": [{"smiles": "NC(=O)OC[C@@H](O)c1ccccc1Cl", "note": "[(S)-2-carbamoyloxyl-1-o-chlorophenylethanol]", "values": [{"measurement": "time at which plasma concentration after the second dosing exceeded the plasma level of a single IV injection", "setting": "[1]; IN 5 mg/kg × 2 vs IV 5 mg/kg", "result": 30, "unit": "min"}, {"measurement": "Cmax and AUC0-240 minutes after the second intranasal application", "setting": "[1]; second IN application 5 minutes after the first dosing, 5 mg/kg × 2", "result": "doubled"}, {"measurement": "Papp at 5 mg/ml", "setting": "in vitro; New Zealand White, rabbit", "result": 27.1, "unit": "×10⁻⁶ cm/s"}, {"measurement": "Transnasal Flux", "setting": "in vitro; New Zealand White, rabbit, 5 mg/ml", "result": 487.6, "unit": "μg/cm^2/hr"}]}, {"smiles": "O=C1CN=C(c2ccccc2Cl)c2cc([N+](=O)[O-])ccc2N1", "note": "[Clonazepam, clonazepam]", "values": [{"measurement": "time to initial peak plasma concentration", "setting": "[2]; after the first intranasal application", "result": "≤ 2", "unit": "min"}, {"measurement": "peak plasma level relative to the IV injection", "setting": "[2]; first intranasal application 0.2 mg/kg", "result": "about 32%"}, {"measurement": "peak plasma concentration after the third application compared with the single IV injection", "setting": "[2]; third IN application at 5 minutes intervals, peak observed at 15 minutes", "result": "nearly identical"}, {"measurement": "Papp at 5 mg/ml", "setting": "in vitro; New Zealand White, rabbit", "result": 19.3, "unit": "×10⁻⁶ cm/s"}, {"measurement": "Transnasal Flux", "setting": "in vitro; [4]", "result": 347.7, "unit": "μg/cm^2/hr"}]}, {"smiles": "CN1C(=O)CN=C(c2ccccc2)c2cc(Cl)ccc21", "note": "[Diazepam, diazepam]", "values": [{"measurement": "increase in the steady-state flux when 1% sodium glycocholate is incorporated into the vehicle", "setting": "in vitro; 10 mg/ml diazepam in 30% ethanol, 60% propylene glycol, 10% water with vs without 1% SGC (FIG. 3)", "result": "approximately 50%"}, {"measurement": "Mean Transnasal Flux", "setting": "in vitro; vehicle 1% Lysophosphotidylcholine/H2O", "result": 125.5, "unit": "μg/cm^2/hr"}, {"measurement": "Mean Transnasal Flux", "setting": "in vitro; vehicle 1% Sodium Cholate/H2O", "result": 66.3, "unit": "μg/cm^2/hr"}, {"measurement": "Mean Transnasal Flux", "setting": "in vitro; vehicle 1% Sodium Deoxycholate/H2O", "result": 74.9, "unit": "μg/cm^2/hr"}, {"measurement": "Mean Transnasal Flux", "setting": "in vitro; vehicle 1% Sodium Glycocholate/H2O", "result": 96.4, "unit": "μg/cm^2/hr"}, {"measurement": "Mean Transnasal Flux", "setting": "in vitro; vehicle 1% Sodium Taurocholate/H2O", "result": 87.0, "unit": "μg/cm^2/hr"}, {"measurement": "Mean Transnasal Flux", "setting": "in vitro; vehicle Water", "result": 79.5, "unit": "μg/cm^2/hr"}, {"measurement": "Transnasal Flux", "setting": "in vitro; [4]", "result": 246.0, "unit": "μg/cm^2/hr"}]}, {"smiles": "Cc1nnc2n1-c1ccc(Cl)cc1C(c1ccccc1Cl)=NC2", "note": "[triazolam]", "values": [{"measurement": "time to maximum plasma concentration", "setting": "[3]", "result": 18, "unit": "min"}]}]}
